Laboratory results reported in PMC4663552, “Identification of Antiviral Agents Targeting Hepatitis B Virus Promoter from Extracts of Indonesian Marine Organisms by a Novel Cell-Based Screening Assay” (Marine Drugs, 2015).
Like-named read-outs stand apart in the source and are kept apart here.

Assays:
[1] = system: Tie2 kinase; design: method as in PMID 15653332; conditions: cited from earlier work
[2] = Cytotoxicity in HepG2.2.15.7 cells (MTS assay); type: cell-based; conditions: human, 9 days post-treatment, read-out: CC50 (reduction of cell viability)
Description: (§1) HepG2.2.15.7 cells were seeded at 1 × 10^4 cells per well in a collagen coated 96-well plate (Corning, Corning, NY, USA) and incubated at 37 °C for 24 h before treatment. The tested compound was added to the culture medium at the indicated concentrations. The culture medium was exchanged every 3 days for fresh medium containing the compound. The treated cells and culture supernatants were harvested 9 days post-treatment and were subjected to MTS assay and estimation of HBV DNA, respectively. The culture supernatant was mixed with an equal volume of Sidestep lysis and stabilization buffer (Agilent Technologies, Santa Clara, CA, USA). The viral DNA included in the mixture was estimated by real-time quantitative PCR using the THUNDERBIRD Probe qPCR Mix (TOYOBO, Osaka, Japan). The forward and reverse primers targeting HBV surface region are 5′-[…]-3′ and 5′-[…]-3′, respectively. The fluorogenic probe was 5′-FAM-[…]-TAMRA-3 [40].

[3] = system: MCF-7 cells; design: method as in PMID 18198840; conditions: MCF-7 cells (a breast cancer cell line); cited from earlier work
[4] = system: HBV; assay: Anti HBV activity in HepG2.2.15.7 cells (supernatant HBV DNA, real-time qPCR); type: cell-based, Hepatitis B virus; conditions: for EC50: Hepatitis B virus, read-out: EC50 (inhibition of the HBV viral DNA release)
Description: as §1

[5] = system: HBV core promoter; assay: Cell-based HBV core promoter assay (luciferase reporter, Huh7 GL4.18 CURS_BC_AeUS cells); conditions: Hepatitis B virus, Huh-7, 48 h incubation
Description: Huh7 GL4.18 CURS_BC_AeUS cells were seeded at 2 × 10^4 cells per well in a 48-well plate and then treated with 25 µg/mL each extracts 24 h after seeding cells. The treated cells were harvested 48 h post-treatment and then lysed with Cell culture lysis buffer (Promega, Madison, WI, USA). Luciferase activity was measured by using Luciferase assay systems (Promega, Madison, WI, USA). The resulting luminescence was detected as described above.

[6] = 216 h, HepG2.2.15.7 cells, 9 days post-treatment, supernatant HBV DNA

| SMILES | Effect on Tie2 kinase activity [1] | CC50 at 9 days [2] [nM] | Effect on cell cycle [3] | Selectivity Index (CC50/EC50) ([4]; HepG2.2.15.7 cells) | EC50 [4, 6] [nM] | IC50 [5] [nM] | EC50 ([4]; HepG2.2.15.7, 216 h) [nM] |
| --- | --- | --- | --- | --- | --- | --- | --- |
| Oc1cc(Br)cc(Br)c1Oc1ccc(Br)cc1Br [Compound 1, 3,5-dibromo-2-(2,4-dibromophenoxy)-phenol] | suppressed activity of Tie2 kinase | 4190 ± 120 | induces G1 phase cell cycle arrest | 18.2 | 230 ± 70 | 2300 | – |
| Oc1cc(Br)c(Br)c(Br)c1Oc1ccc(Br)cc1Br [Compound 2, 3,4,5-tribromo-2-(2,4-dibromophenoxy)-phenol] | – | 10300 ± 3690 | – | 12.8 | 800 ± 340 | 4900 | – |
| C=C1[C@H](CO)[C@@H](O)C[C@@H]1n1cnc2c(=O)[nH]c(N)nc21 [Entecavir, reference compound] | – | > 100000 | – | >4761 | – | – | 21 ± 3 |
